{
  "source": "patent US20100267629A1",
  "about": "“Enterostatin as Therapeutic Agent for Hypoglycemia” (Board of Supervisors of Louisiana State University and …, priority 2006, published 2010)",
  "key": {"C57B1/6 male mice [1]": {"tested_on": "C57B1/6 male mice", "test": "Glucose tolerance test", "format": "in vivo, mouse", "conditions": "18 h fasted, vs control", "experimental": "(§1) Animals: C57B1/6 male mice were purchased from The Jackson Laboratory (Bar Harbor, Me.) at 6 weeks of age. The mice were initially housed in groups of three in acrylic cages in a room with a 12-hour light/dark cycle and with controlled temperature (22 to 23° C.) and with free access to water. The mice were fed a high fat diet (4.78 kcal/g, 56% energy as fat; Research Diets Inc, Brunswick, N.J.). The composition of the diet has been previously described (15). Body weights were measured three time per week. At 8 weeks of age, the mice were switched to single housing.\n(§2) Peptide Injections: Enterostatin was dissolved in 0.1 ml saline (0.9% NaCl w/v), and given as a single dose of either 5 μg or 25 μg/mouse. Either enterostatin or saline (control) was injected intraperitoneally. In the experiments involving insulin, insulin (0.75 mU/g body weight) or saline (0.1 ml/10 g body weight; control) was injected intraperitoneally.\nEnterostatin Effect on Glucose Tolerance Tests: For glucose tolerance tests, mice were fasted overnight (18 hours). Enterostatin (5 or 25 ug/mouse in 0.1 ml saline vehicle) or saline vehicle was injected intraperitoneally (ip) 20 minutes before an intraperitoneal injection of glucose (1.0 mg/gm body weight). Blood samples were taken from the tail vein immediately before glucose administration, and then at 15, 30, 45 and 60 min after glucose injection. […]"}, "C57B1/6 male mice [2]": {"tested_on": "C57B1/6 male mice", "test": "Fasting blood glucose after enterostatin injection", "format": "in vivo, mouse", "experimental": "as §1, §2\nEnterostatin Effect on Fasting Blood Glucose. To directly test the effect of enterostatin on blood glucose, mice were fasted for 18 hours, and enterostatin (25 μg/mouse) or 0.1 ml saline vehicle was injected intraperitoneally at zero time. Blood samples were taken from the tail vein at 15, 30, 45 and 60 min after enterostatin injection. The blood samples were assayed for glucose using a glucometer."}, "AMPK": {"tested_on": "AMPK", "test": "pAMPK Western blot in HepG2 cells, 60 min incubation", "format": "cell-based, human", "conditions": "HepG2, one hour incubation", "experimental": "(§3) In a second experiment, human liver cells (HepG2 cell line, American Type Culture Collection, Manassas, Va.) were grown and maintained in Dulbecco's modified eagle's medium (Gibco, Carlsbad, Calif.) containing 10% fetal bovine serum, penicillin (100 I.U./ml), and streptomycin (100 μg/ml). The cells were then incubated for 60 min with 5 mM glucose and various concentrations of enterostatin (0.001, 0.01, 0.03, 0.1, 1.0 μM). After incubation, the cells were lysed and the cytosolic proteins subjected to Western blot analysis for pAMPK and PKARIIβ."}, "PKARIIβ": {"tested_on": "PKARIIβ", "test": "PKARIIβ Western blot in HepG2 cells, 60 min incubation", "format": "cell-based, human", "conditions": "HepG2, one hour incubation", "experimental": "as §3"}, "sheep": {"tested_on": "sheep", "conditions": "single-choice diet; cited from earlier work"}, "[3]": {"target": "T1, cholecystokinin A receptors (Homo sapiens, UniProt P32238)", "T1 sequence (P32238 1-428)": "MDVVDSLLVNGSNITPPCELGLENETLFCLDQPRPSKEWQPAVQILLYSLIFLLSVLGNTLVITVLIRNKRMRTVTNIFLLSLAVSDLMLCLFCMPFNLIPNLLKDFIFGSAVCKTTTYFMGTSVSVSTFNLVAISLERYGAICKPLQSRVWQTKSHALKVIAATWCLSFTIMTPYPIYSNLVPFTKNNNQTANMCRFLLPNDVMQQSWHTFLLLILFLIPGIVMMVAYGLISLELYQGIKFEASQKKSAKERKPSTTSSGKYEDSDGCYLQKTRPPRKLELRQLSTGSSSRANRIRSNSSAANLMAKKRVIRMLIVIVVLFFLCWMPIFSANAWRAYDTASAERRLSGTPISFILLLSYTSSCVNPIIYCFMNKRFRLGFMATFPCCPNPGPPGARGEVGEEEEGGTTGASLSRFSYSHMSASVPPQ", "conditions": "cited from earlier work"}, "[4]": {"conditions": "peripheral and central administration; cited from earlier work"}},
  "data": [
    {"substance": "Enterostatin: aminoterminal pentapeptide of procolipase released when procolipase is converted into colipase (VPDPR; printed: Val-Pro-Asp-Pro-Arg)", "values": [
      {"measurement": "Clearance of blood glucose", "setting": "C57B1/6 male mice [1]; 5 μg/mouse ip 20 min before glucose 1.0 mg/gm", "value": "no differences"},
      {"measurement": "Clearance of blood glucose", "setting": "C57B1/6 male mice [1]; 25 μg/mouse ip 20 min before glucose 1.0 mg/gm", "value": "no differences"},
      {"measurement": "Blood glucose levels compared to saline control", "setting": "C57B1/6 male mice [2]; 25 μg/mouse ip, 18 h fasted", "value": "rapid increase in blood glucose levels"},
      {"measurement": "Increase in blood glucose versus saline vehicle", "setting": "C57B1/6 male mice [2]; 25 μg/mouse ip, at 15 and 30 min", "value": "significantly greater"},
      {"measurement": "Duration of raised glucose levels after injection", "setting": "C57B1/6 male mice [2]; injection into mice", "value": "remained high for up to an hour after injection"},
      {"measurement": "Time to increase in blood glucose levels after injection", "setting": "C57B1/6 male mice [2]; injection into mice", "value": "≤ 15", "unit": "min"},
      {"measurement": "Dose of peak effect on pAMPK", "setting": "AMPK", "value": 0.01, "unit": "μM"},
      {"measurement": "pAMPK levels", "setting": "AMPK; 5 mM glucose", "value": "increase in pAMPK levels"},
      {"measurement": "Dose of peak increase in PKARIIβ", "setting": "PKARIIβ", "value": 10, "unit": "nM"},
      {"measurement": "PKARIIβ", "setting": "PKARIIβ; 5 mM glucose", "value": "increase in PKARIIβ"},
      {"measurement": "Food intake", "setting": "sheep", "value": "reduce food intake"},
      {"measurement": "Binding", "setting": "[3]", "value": "not to bind"},
      {"measurement": "Insulin levels", "setting": "[4]", "value": "reduction in insulin levels"},
      {"measurement": "Plasma glucose", "setting": "[4]", "value": "without any changes in plasma glucose"}
    ]}
  ]
}
